PMC6704710, “Preclinical evaluation of 3D185, a novel potent inhibitor of FGFR1/2/3 and CSF-1R, in FGFR-dependent and macrophage-dominant cancer models” (Journal of Experimental & Clinical Cancer Research : CR, 2019)

Assays:
Assay in all cases: Eurofins kinase panel
Assay type in all cases: biochemical
Conditions in all cases: read-out: Inhibition rate (%)
[1] = target: T1, CDK3/cyclinE(h) (Homo sapiens, UniProt Q00526)
T1 construct: purchased Eurofins (KinaseProfiler)

[2] = target: T2, PKCβII(h) (Homo sapiens, UniProt P05771)
T2 construct: purchased Eurofins (KinaseProfiler)

[3] = target: T3, EGFR(L861Q)(h) (Homo sapiens, UniProt P00533, L861Q)
T3 construct: purchased Eurofins (KinaseProfiler)

[4] = target: T4, TAO2(h) (Homo sapiens, UniProt Q9UL54)
T4 construct: purchased Eurofins (KinaseProfiler)
T4 sequence (Q9UL54 1-1235): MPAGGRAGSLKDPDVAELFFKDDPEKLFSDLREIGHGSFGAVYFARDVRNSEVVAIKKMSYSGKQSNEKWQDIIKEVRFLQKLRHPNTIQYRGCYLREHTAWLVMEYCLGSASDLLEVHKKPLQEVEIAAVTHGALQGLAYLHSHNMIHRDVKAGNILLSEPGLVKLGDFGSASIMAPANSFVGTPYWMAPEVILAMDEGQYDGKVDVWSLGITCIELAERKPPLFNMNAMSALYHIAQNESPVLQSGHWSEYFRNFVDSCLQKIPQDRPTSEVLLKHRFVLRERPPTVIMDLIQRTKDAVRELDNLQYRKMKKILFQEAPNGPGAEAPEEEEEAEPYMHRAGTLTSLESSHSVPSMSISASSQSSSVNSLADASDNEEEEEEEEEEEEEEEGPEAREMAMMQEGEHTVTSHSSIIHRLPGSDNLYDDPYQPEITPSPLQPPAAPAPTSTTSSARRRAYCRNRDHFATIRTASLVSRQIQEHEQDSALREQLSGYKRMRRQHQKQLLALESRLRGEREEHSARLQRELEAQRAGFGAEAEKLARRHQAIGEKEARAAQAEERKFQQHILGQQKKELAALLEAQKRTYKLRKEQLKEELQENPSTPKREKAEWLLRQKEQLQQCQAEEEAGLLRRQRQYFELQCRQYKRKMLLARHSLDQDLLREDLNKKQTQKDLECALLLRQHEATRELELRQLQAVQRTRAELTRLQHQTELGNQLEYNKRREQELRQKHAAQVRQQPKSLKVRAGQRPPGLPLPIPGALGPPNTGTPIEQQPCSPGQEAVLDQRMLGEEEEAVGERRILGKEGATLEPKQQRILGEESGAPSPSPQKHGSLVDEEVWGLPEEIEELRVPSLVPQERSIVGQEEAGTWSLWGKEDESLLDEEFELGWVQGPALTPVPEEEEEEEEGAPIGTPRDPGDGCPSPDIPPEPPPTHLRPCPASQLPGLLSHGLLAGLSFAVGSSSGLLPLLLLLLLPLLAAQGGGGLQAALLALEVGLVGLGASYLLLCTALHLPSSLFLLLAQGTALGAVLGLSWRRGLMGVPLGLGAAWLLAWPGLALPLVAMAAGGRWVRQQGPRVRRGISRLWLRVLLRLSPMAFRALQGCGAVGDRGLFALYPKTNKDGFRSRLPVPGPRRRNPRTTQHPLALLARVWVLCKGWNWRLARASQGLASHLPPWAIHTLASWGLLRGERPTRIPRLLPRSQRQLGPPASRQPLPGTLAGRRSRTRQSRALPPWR

[5] = target: T5, CaMKIIγ(h) (Homo sapiens, UniProt Q13555)
T5 construct: purchased Eurofins (KinaseProfiler)

[6] = target: T6, RIPK1(h) (Homo sapiens, UniProt Q13546)
T6 construct: purchased Eurofins (KinaseProfiler)
T6 sequence (Q13546 1-671): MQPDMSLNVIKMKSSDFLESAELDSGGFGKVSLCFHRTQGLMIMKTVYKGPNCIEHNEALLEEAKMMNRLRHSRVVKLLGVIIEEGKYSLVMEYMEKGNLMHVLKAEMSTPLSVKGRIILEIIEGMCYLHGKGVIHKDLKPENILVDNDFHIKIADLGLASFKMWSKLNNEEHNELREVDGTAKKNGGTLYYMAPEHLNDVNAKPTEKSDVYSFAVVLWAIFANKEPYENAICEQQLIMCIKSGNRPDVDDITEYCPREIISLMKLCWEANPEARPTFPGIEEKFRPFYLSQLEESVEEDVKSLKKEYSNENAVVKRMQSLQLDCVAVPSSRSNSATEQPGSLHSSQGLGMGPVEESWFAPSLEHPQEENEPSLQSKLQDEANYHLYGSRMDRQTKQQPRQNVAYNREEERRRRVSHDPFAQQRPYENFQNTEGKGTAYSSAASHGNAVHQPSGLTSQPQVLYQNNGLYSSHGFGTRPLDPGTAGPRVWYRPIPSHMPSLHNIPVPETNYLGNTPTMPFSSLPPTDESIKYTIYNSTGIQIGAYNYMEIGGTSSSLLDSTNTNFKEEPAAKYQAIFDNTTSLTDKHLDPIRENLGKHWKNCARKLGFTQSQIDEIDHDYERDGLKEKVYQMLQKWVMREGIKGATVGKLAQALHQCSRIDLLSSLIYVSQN

[7] = target: T7, p70S6K(h) (Homo sapiens, UniProt P23443)
T7 construct: purchased Eurofins (KinaseProfiler)

[8] = target: T8, PRK2(h) (Homo sapiens, UniProt Q16513)
T8 construct: purchased Eurofins (KinaseProfiler)

[9] = target: T9, EGFR(T790M,L858R)(h) (Homo sapiens, UniProt P00533, L858R/T790M)
T9 construct: purchased Eurofins (KinaseProfiler)
T9 sequence (P00533 25-1210 T790M/L858R): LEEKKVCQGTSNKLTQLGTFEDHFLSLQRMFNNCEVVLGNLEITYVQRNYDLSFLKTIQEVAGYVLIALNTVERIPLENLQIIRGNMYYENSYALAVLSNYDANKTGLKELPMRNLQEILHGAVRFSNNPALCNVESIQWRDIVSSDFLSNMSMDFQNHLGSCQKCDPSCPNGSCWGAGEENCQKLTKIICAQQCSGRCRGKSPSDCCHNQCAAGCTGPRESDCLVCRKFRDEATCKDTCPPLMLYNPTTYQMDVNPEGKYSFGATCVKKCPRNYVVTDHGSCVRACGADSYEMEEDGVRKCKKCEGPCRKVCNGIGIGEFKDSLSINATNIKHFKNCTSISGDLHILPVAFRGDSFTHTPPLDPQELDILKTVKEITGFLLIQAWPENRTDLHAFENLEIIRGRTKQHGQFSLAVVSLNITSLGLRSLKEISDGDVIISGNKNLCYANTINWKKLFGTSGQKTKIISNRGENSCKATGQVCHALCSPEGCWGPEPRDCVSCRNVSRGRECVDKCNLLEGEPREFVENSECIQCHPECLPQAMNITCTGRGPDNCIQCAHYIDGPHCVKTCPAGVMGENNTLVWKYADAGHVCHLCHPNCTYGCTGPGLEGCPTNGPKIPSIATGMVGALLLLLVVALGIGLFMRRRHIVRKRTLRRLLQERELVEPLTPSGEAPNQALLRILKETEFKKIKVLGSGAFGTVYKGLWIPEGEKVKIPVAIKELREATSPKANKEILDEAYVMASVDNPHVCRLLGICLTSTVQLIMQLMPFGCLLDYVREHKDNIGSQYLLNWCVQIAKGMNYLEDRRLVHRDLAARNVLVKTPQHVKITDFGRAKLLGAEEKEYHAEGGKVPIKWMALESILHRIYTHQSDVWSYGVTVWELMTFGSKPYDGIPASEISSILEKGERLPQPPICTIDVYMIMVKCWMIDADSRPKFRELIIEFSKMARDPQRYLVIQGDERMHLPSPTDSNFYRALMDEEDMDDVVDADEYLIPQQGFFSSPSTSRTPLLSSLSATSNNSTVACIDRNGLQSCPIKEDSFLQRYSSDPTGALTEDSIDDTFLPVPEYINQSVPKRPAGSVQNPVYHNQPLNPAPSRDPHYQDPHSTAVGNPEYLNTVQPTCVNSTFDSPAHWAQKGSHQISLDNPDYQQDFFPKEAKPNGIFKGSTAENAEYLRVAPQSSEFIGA

T2 sequence (P05771 1-673 isoform P05771-2): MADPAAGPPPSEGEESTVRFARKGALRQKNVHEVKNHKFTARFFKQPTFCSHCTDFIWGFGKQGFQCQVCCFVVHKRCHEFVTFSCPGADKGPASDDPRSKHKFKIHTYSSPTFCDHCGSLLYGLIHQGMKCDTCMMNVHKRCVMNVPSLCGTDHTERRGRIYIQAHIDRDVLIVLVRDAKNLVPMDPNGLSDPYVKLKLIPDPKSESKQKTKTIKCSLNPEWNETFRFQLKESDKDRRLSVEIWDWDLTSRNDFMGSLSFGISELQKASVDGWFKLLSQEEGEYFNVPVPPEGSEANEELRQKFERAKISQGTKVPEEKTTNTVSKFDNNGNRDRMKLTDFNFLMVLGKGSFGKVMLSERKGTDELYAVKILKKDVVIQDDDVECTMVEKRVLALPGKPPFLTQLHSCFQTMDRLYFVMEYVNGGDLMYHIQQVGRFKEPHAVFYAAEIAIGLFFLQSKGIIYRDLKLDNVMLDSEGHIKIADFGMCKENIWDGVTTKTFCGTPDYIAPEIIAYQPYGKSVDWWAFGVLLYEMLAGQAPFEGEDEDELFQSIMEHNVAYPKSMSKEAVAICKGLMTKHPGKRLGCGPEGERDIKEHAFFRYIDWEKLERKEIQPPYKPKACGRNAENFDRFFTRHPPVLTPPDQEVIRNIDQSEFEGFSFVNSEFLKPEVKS
T5 sequence (Q13555 whole entry): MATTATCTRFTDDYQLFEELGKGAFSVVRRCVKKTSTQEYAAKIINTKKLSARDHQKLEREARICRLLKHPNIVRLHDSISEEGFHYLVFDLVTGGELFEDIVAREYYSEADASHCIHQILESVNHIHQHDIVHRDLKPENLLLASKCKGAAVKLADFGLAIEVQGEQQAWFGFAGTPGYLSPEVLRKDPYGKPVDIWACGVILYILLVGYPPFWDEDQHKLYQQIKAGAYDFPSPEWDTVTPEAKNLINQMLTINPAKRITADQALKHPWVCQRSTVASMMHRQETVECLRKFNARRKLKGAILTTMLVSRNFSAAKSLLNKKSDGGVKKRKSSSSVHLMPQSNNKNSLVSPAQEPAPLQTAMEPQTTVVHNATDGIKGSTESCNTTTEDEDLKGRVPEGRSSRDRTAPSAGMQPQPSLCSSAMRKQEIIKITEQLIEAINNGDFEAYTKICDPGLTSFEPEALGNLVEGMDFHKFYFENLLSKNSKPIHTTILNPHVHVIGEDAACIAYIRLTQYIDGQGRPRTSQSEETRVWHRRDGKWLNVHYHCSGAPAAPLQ
T7 sequence (P23443 whole entry): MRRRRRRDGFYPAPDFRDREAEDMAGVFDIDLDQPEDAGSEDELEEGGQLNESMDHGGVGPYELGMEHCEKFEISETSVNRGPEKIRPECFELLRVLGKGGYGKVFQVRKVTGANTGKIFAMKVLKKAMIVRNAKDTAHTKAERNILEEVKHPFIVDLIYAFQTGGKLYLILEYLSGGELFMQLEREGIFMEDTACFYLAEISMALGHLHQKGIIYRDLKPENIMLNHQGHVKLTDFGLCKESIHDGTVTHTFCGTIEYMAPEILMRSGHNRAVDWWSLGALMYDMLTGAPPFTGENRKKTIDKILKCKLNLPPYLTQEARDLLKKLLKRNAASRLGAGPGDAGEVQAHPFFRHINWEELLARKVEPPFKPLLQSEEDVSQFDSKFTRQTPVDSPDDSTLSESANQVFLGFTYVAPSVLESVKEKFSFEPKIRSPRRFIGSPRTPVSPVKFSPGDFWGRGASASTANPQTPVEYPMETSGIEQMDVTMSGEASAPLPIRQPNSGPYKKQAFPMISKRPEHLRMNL
T1 sequence (Q00526 whole entry): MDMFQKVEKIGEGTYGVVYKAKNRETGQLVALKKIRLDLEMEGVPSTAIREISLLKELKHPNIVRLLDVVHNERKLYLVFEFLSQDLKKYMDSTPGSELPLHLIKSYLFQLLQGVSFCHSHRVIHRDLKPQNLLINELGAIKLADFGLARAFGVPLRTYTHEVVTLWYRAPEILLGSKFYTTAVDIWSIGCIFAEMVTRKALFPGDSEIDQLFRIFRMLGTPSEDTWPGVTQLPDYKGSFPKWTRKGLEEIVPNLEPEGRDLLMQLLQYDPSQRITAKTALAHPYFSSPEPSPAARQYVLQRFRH
T1 sequence (P24864 whole entry partner): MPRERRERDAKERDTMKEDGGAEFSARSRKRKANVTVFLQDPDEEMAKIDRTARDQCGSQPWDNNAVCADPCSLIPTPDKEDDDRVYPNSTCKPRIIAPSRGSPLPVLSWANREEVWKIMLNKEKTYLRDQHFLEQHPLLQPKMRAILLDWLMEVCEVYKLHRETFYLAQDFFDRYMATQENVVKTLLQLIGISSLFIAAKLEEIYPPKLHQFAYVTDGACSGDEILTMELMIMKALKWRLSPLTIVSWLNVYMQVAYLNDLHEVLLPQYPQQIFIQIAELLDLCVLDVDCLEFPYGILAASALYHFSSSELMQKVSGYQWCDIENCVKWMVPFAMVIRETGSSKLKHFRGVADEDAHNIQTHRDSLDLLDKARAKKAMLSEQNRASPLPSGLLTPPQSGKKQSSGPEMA
T3 sequence (P00533 25-1210 L861Q): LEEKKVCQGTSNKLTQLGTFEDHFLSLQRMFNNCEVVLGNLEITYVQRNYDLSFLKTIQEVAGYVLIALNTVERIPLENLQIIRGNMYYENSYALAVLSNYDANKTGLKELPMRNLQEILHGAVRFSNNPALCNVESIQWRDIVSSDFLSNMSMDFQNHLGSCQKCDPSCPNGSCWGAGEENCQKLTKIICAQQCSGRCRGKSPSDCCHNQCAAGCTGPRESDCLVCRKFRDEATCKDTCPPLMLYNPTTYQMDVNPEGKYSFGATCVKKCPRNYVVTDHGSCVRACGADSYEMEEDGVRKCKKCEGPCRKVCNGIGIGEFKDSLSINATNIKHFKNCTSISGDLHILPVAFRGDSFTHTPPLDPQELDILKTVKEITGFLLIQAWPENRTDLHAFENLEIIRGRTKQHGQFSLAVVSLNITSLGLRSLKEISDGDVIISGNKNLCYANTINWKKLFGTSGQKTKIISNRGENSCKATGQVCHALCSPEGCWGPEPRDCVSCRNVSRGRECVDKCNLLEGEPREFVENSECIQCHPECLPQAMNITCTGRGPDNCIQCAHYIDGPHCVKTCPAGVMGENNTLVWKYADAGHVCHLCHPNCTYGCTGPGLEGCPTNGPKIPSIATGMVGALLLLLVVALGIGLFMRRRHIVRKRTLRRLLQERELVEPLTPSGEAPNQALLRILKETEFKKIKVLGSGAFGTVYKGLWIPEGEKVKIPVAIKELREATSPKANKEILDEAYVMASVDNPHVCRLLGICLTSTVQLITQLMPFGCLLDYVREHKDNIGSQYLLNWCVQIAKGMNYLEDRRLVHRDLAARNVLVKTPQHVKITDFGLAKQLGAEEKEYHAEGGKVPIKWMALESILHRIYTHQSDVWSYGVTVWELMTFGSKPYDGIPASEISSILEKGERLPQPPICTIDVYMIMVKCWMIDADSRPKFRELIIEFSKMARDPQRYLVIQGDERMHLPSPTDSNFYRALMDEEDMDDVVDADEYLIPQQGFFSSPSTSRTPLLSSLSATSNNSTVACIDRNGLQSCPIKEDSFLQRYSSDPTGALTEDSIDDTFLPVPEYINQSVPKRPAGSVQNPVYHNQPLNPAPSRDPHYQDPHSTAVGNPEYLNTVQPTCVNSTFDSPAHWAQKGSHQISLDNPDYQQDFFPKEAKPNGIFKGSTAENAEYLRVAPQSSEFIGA

COc1cc(OC)c(Cl)c(-c2ccc3c(NC(=O)c4ccc(N5CCNC(C)(C)C5)cc4)n[nH]c3n2)c1Cl [3D185]
inhibition at 0.01 µM ([1]; 10 nM): 1% | inhibition at 0.1 µM ([1]; 100 nM): -11% | inhibition at 1 µM ([1]; 1000 nM): -19% | inhibition at 0.01 µM ([2]; 10 nM): -12% | inhibition at 0.1 µM ([2]; 100 nM): -1% | inhibition at 1 µM ([2]; 1000 nM): -8% | inhibition at 0.01 µM ([3]; 10 nM): -5% | inhibition at 0.1 µM ([3]; 100 nM): -5% | inhibition at 1 µM ([3]; 1000 nM): 39% | inhibition at 0.01 µM ([4]; 10 nM): 12% | inhibition at 0.1 µM ([4]; 100 nM): 28% | inhibition at 1 µM ([4]; 1000 nM): 66% | inhibition at 0.01 µM ([5]; 10 nM): -2% | inhibition at 0.1 µM ([5]; 100 nM): -6% | inhibition at 1 µM ([5]; 1000 nM): -9% | inhibition at 0.01 µM ([6]; 10 nM): 4% | inhibition at 0.1 µM ([6]; 100 nM): 86% | inhibition at 1 µM ([6]; 1000 nM): 99% | inhibition at 0.01 µM ([7]; 10 nM): -4% | inhibition at 0.1 µM ([7]; 100 nM): -9% | inhibition at 1 µM ([7]; 1000 nM): -1% | inhibition at 0.01 µM ([8]; 10 nM): 12% | inhibition at 0.1 µM ([8]; 100 nM): 4% | inhibition at 1 µM ([8]; 1000 nM): 3% | inhibition at 0.01 µM ([9]; 10 nM): 6% | inhibition at 0.1 µM ([9]; 100 nM): 38% | inhibition at 1 µM ([9]; 1000 nM): 79%
